# Test results published in US20030224416A1, “Schizophrenia related gene” (priority 2002, published 2003).
# Tested on: Kv3.1 α-subunit mRNA
# Test: Experiment 1: in situ hybridization of Kv3.1 α-subunit mRNA in brain, chronic PCP rat model of schizophrenia with antipsychotic co-treatment
# Format: in vivo
structure (smiles),measurement,setting,value
"Cc1cc2c(s1)Nc1ccccc1N=C2N1CCN(C)CC1 [Olanzapine, olanzapine]",Kv3.1 α-subunit mRNA expression,"ACg, PCP + drug 0.3 mg/kg/day",15.83 ± 0.73 PSL/mm^2
same,Kv3.1 α-subunit mRNA expression,"ACg, PCP + drug 1 mg/kg/day",14.83 ± 1.00 PSL/mm^2
same,Kv3.1 α-subunit mRNA expression,"ACg, PCP + drug 3 mg/kg/day",16.31 ± 0.40 PSL/mm^2
same,Kv3.1 α-subunit mRNA expression,"ACg, PCP + drug 10 mg/kg/day",15.03 ± 0.72 PSL/mm^2
same,Kv3.1 α-subunit mRNA expression,"AcbC, PCP + drug 0.3 mg/kg/day",8.59 ± 0.58 PSL/mm^2
same,Kv3.1 α-subunit mRNA expression,"AcbC, PCP + drug 1 mg/kg/day",8.12 ± 0.67 PSL/mm^2
same,Kv3.1 α-subunit mRNA expression,"AcbC, PCP + drug 3 mg/kg/day",8.55 ± 0.25 PSL/mm^2
same,Kv3.1 α-subunit mRNA expression,"AcbC, PCP + drug 10 mg/kg/day",8.27 ± 0.31 PSL/mm^2
same,Kv3.1 α-subunit mRNA expression,"AcbS, PCP + drug 0.3 mg/kg/day",11.42 ± 0.73 PSL/mm^2
same,Kv3.1 α-subunit mRNA expression,"AcbS, PCP + drug 1 mg/kg/day",10.43 ± 0.56 PSL/mm^2
same,Kv3.1 α-subunit mRNA expression,"AcbS, PCP + drug 3 mg/kg/day",11.62 ± 0.84 PSL/mm^2
same,Kv3.1 α-subunit mRNA expression,"AcbS, PCP + drug 10 mg/kg/day",11.95 ± 1.02 PSL/mm^2
same,Kv3.1 α-subunit mRNA expression,"Au1, PCP + drug 0.3 mg/kg/day",18.60 ± 1.75 PSL/mm^2
same,Kv3.1 α-subunit mRNA expression,"Au1, PCP + drug 1 mg/kg/day",18.68 ± 0.80 PSL/mm^2
same,Kv3.1 α-subunit mRNA expression,"Au1, PCP + drug 3 mg/kg/day",17.42 ± 1.46 PSL/mm^2
same,Kv3.1 α-subunit mRNA expression,"Au1, PCP + drug 10 mg/kg/day",16.91 ± 0.86 PSL/mm^2
same,Kv3.1 α-subunit mRNA expression,"CA1pd, PCP + drug 0.3 mg/kg/day",19.98 ± 1.59 PSL/mm^2
same,Kv3.1 α-subunit mRNA expression,"CA1pd, PCP + drug 1 mg/kg/day",19.14 ± 2.06 PSL/mm^2
same,Kv3.1 α-subunit mRNA expression,"CA1pd, PCP + drug 3 mg/kg/day",18.37 ± 1.54 PSL/mm^2
same,Kv3.1 α-subunit mRNA expression,"CA1pd, PCP + drug 10 mg/kg/day",20.15 ± 1.22 PSL/mm^2
same,Kv3.1 α-subunit mRNA expression,"CA2pd, PCP + drug 0.3 mg/kg/day",21.36 ± 2.52 PSL/mm^2
same,Kv3.1 α-subunit mRNA expression,"CA2pd, PCP + drug 1 mg/kg/day",17.72 ± 1.86 PSL/mm^2
same,Kv3.1 α-subunit mRNA expression,"CA2pd, PCP + drug 10 mg/kg/day",20.59 ± 1.35 PSL/mm^2
same,Kv3.1 α-subunit mRNA expression,"CA3pd, PCP + drug 0.3 mg/kg/day",33.71 ± 3.48 PSL/mm^2
same,Kv3.1 α-subunit mRNA expression,"CA3pd, PCP + drug 1 mg/kg/day",30.50 ± 1.94 PSL/mm^2
same,Kv3.1 α-subunit mRNA expression,"CA3pd, PCP + drug 3 mg/kg/day",33.46 ± 2.04 PSL/mm^2
same,Kv3.1 α-subunit mRNA expression,"CA3pd, PCP + drug 10 mg/kg/day",32.81 ± 1.82 PSL/mm^2
same,Kv3.1 α-subunit mRNA expression,"DGgd, PCP + drug 0.3 mg/kg/day",35.22 ± 1.16 PSL/mm^2
same,Kv3.1 α-subunit mRNA expression,"DGgd, PCP + drug 1 mg/kg/day",33.04 PSL/mm^2
same,Kv3.1 α-subunit mRNA expression,"DGgd, PCP + drug 3 mg/kg/day",36.51 ± 1.07 PSL/mm^2
same,Kv3.1 α-subunit mRNA expression,"DGgd, PCP + drug 10 mg/kg/day",38.16 ± 1.10 PSL/mm^2
same,Kv3.1 α-subunit mRNA expression,"IL, PCP + drug 0.3 mg/kg/day",12.00 ± 0.65 PSL/mm^2
same,Kv3.1 α-subunit mRNA expression,"IL, PCP + drug 1 mg/kg/day",11.27 ± 1.08 PSL/mm^2
same,Kv3.1 α-subunit mRNA expression,"IL, PCP + drug 3 mg/kg/day",11.40 ± 0.41 PSL/mm^2
same,Kv3.1 α-subunit mRNA expression,"IL, PCP + drug 10 mg/kg/day",12.15 ± 0.62 PSL/mm^2
same,Kv3.1 α-subunit mRNA expression,"IO, PCP + drug 0.3 mg/kg/day",15.50 ± 0.51 PSL/mm^2
same,Kv3.1 α-subunit mRNA expression,"IO, PCP + drug 1 mg/kg/day",16.18 ± 0.32 PSL/mm^2
same,Kv3.1 α-subunit mRNA expression,"IO, PCP + drug 3 mg/kg/day",16.83 ± 0.79 PSL/mm^2
same,Kv3.1 α-subunit mRNA expression,"IO, PCP + drug 10 mg/kg/day",17.74 ± 0.37 PSL/mm^2
same,Kv3.1 α-subunit mRNA expression,"M1, PCP + drug 0.3 mg/kg/day",15.83 ± 0.69 PSL/mm^2
same,Kv3.1 α-subunit mRNA expression,"M1, PCP + drug 1 mg/kg/day",16.17 ± 1.27 PSL/mm^2
same,Kv3.1 α-subunit mRNA expression,"M1, PCP + drug 3 mg/kg/day",16.17 ± 0.79 PSL/mm^2
same,Kv3.1 α-subunit mRNA expression,"M1, PCP + drug 10 mg/kg/day",16.27 ± 0.37 PSL/mm^2
same,Kv3.1 α-subunit mRNA expression,"M2, PCP + drug 3 mg/kg/day",14.48 ± 0.90 PSL/mm^2
same,Kv3.1 α-subunit mRNA expression,"MG, PCP + drug 0.3 mg/kg/day",26.64 ± 2.22 PSL/mm^2
same,Kv3.1 α-subunit mRNA expression,"MM, PCP + drug 10 mg/kg/day",4.69 ± 2.24 PSL/mm^2
same,Kv3.1 α-subunit mRNA expression,"Pir, PCP + drug 0.3 mg/kg/day",37.73 ± 1.18 PSL/mm^2
same,Kv3.1 α-subunit mRNA expression,"Pir, PCP + drug 1 mg/kg/day",36.82 ± 0.51 PSL/mm^2
same,Kv3.1 α-subunit mRNA expression,"Pir, PCP + drug 3 mg/kg/day",43.78 ± 1.20 PSL/mm^2
same,Kv3.1 α-subunit mRNA expression,"Pir, PCP + drug 10 mg/kg/day",40.66 ± 2.21 PSL/mm^2
same,Kv3.1 α-subunit mRNA expression,"RSa, PCP + drug 0.3 mg/kg/day",16.53 ± 1.13 PSL/mm^2
same,Kv3.1 α-subunit mRNA expression,"RSa, PCP + drug 1 mg/kg/day",16.92 ± 0.74 PSL/mm^2
same,Kv3.1 α-subunit mRNA expression,"RSa, PCP + drug 3 mg/kg/day",18.21 ± 1.15 PSL/mm^2
same,Kv3.1 α-subunit mRNA expression,"RSa, PCP + drug 10 mg/kg/day",18.77 ± 1.07 PSL/mm^2
same,Kv3.1 α-subunit mRNA expression,"RSg, PCP + drug 0.3 mg/kg/day",19.48 ± 0.72 PSL/mm^2
same,Kv3.1 α-subunit mRNA expression,"RSg, PCP + drug 1 mg/kg/day",19.43 ± 1.20 PSL/mm^2
same,Kv3.1 α-subunit mRNA expression,"RSg, PCP + drug 3 mg/kg/day",20.96 ± 1.08 PSL/mm^2
same,Kv3.1 α-subunit mRNA expression,"RSg, PCP + drug 10 mg/kg/day",19.59 ± 0.92 PSL/mm^2
same,Kv3.1 α-subunit mRNA expression,"VMStr, PCP + drug 3 mg/kg/day",7.52 PSL/mm^2
same,Kv3.1 α-subunit mRNA expression,"VMStr, PCP + drug 10 mg/kg/day",5.99 ± 0.28 PSL/mm^2
same,Kv3.1 α-subunit mRNA expression,"VO, PCP + drug 0.3 mg/kg/day",19.03 ± 1.00 PSL/mm^2
same,Kv3.1 α-subunit mRNA expression,"VO, PCP + drug 1 mg/kg/day",18.35 ± 1.04 PSL/mm^2
same,Kv3.1 α-subunit mRNA expression,"VO, PCP + drug 3 mg/kg/day",18.96 ± 0.86 PSL/mm^2
same,Kv3.1 α-subunit mRNA expression,"VO, PCP + drug 10 mg/kg/day",19.88 ± 0.58 PSL/mm^2
same,Kv3.1 α-subunit mRNA expression,"dRt, PCP + drug 0.3 mg/kg/day",50.99 ± 2.22 PSL/mm^2
same,Kv3.1 α-subunit mRNA expression,"dRt, PCP + drug 1 mg/kg/day",50.92 ± 3.80 PSL/mm^2
same,Kv3.1 α-subunit mRNA expression,"dRt, PCP + drug 3 mg/kg/day",52.87 ± 1.95 PSL/mm^2
same,Kv3.1 α-subunit mRNA expression,"dRt, PCP + drug 10 mg/kg/day",52.42 ± 1.19 PSL/mm^2
same,Kv3.1 α-subunit mRNA expression,"vRt, PCP + drug 0.3 mg/kg/day",54.57 ± 3.12 PSL/mm^2
same,Kv3.1 α-subunit mRNA expression,"vRt, PCP + drug 1 mg/kg/day",46.70 ± 3.99 PSL/mm^2
same,Kv3.1 α-subunit mRNA expression,"vRt, PCP + drug 3 mg/kg/day",42.97 ± 2.22 PSL/mm^2
same,Kv3.1 α-subunit mRNA expression,"vRt, PCP + drug 10 mg/kg/day",53.69 ± 2.07 PSL/mm^2
